Measurements published in the NIST ThermoML archive (doi:10.1021/je060271a).

Details: 303.16 K, Liquid, Vibrating tube method

CCCC(=O)OCC(COC(=O)CCC)(COC(=O)CCC)COC(=O)CCC [pentaerythritol tetrabutyrate]
Details	mass density [kg/m3]
6790.5 kPa	1046.6
6817.3 kPa	1046.7
6849.6 kPa	1046.6
6876.7 kPa	1046.6
6909 kPa	1046.7
6936.8 kPa	1046.6
6965.3 kPa	1046.7
6993.5 kPa	1046.7
7274.1 kPa	1047
7311.4 kPa	1046.9
7343 kPa	1046.9
7374.1 kPa	1046.9
7412.9 kPa	1047
7446.2 kPa	1047
7479.9 kPa	1047.1
7515.1 kPa	1047
7541.7 kPa	1047.1
7566.7 kPa	1047.1
7596.6 kPa	1047.2
7622.5 kPa	1047.1
7647.8 kPa	1047.1
7673.7 kPa	1047.1
7703.6 kPa	1047.1
7729.5 kPa	1047.2
7755.5 kPa	1047.2
7786.9 kPa	1047.3
7813.7 kPa	1047.3
7840.6 kPa	1047.2
7867.9 kPa	1047.3
7895 kPa	1047.2
7927.7 kPa	1047.2
7955 kPa	1047.3
7982.8 kPa	1047.3
8016.1 kPa	1047.4
8044.7 kPa	1047.3
8073.5 kPa	1047.3
8102.7 kPa	1047.4
8125 kPa	1047.5
8147.9 kPa	1047.5
8175.2 kPa	1047.5
8198.5 kPa	1047.5
8222.3 kPa	1047.4
8245.7 kPa	1047.6
8273.3 kPa	1047.4
8297.3 kPa	1047.5
8325.9 kPa	1047.5
8350.8 kPa	1047.6
8373.4 kPa	1047.6
8504.8 kPa	1047.7
8527.9 kPa	1047.7
8547 kPa	1047.6
8565.8 kPa	1047.7
8588.8 kPa	1047.8
8607.6 kPa	1047.8
8630.3 kPa	1047.7
8649.3 kPa	1047.8
8672.8 kPa	1047.8
8693.1 kPa	1047.8
8716 kPa	1047.9
8735.5 kPa	1047.8
8759.5 kPa	1047.9
8783.6 kPa	1047.9
8803.1 kPa	1047.9
8823.4 kPa	1047.9
8847.6 kPa	1047.9
8867.8 kPa	1048
8892.1 kPa	1047.9
8916.2 kPa	1047.9
8936.4 kPa	1047.9
8960.7 kPa	1048
8981.7 kPa	1047.9
9006.9 kPa	1047.9
9027.7 kPa	1048
9053.1 kPa	1047.9
9078.7 kPa	1048.1
9099.8 kPa	1048
9121 kPa	1048.1
9146.6 kPa	1048
9172.2 kPa	1048.1
9193.2 kPa	1048.1
9244.7 kPa	1048.2
9266.6 kPa	1048.2
9293.3 kPa	1048.3
9315.9 kPa	1048.3
9343.1 kPa	1048.2
9366.4 kPa	1048.3
9391.5 kPa	1048.3
9419 kPa	1048.4
9442.1 kPa	1048.2
9469.3 kPa	1048.3
9492.3 kPa	1048.3
9519.7 kPa	1048.4
9547.7 kPa	1048.4
9571.3 kPa	1048.5
9599.9 kPa	1048.3
9623.9 kPa	1048.5
9652 kPa	1048.3
9680.6 kPa	1048.5
9705 kPa	1048.4
9730.4 kPa	1048.5
9759.3 kPa	1048.5
9783.6 kPa	1048.5
9812.9 kPa	1048.6
9843 kPa	1048.5
9868 kPa	1048.4
9898.3 kPa	1048.5
9923.1 kPa	1048.5
9953.2 kPa	1048.6
9984.1 kPa	1048.6
10010 kPa	1048.7
10041 kPa	1048.7
10067 kPa	1048.7
10100 kPa	1048.8
10126 kPa	1048.6
10159 kPa	1048.7
10186 kPa	1048.8
10218 kPa	1048.7
10245 kPa	1048.7
10278 kPa	1048.8
10305 kPa	1048.7
10337 kPa	1048.9
10371 kPa	1048.7
10399 kPa	1048.8
10432 kPa	1048.9
10461 kPa	1048.9
10496 kPa	1048.9
10525 kPa	1048.8
10560 kPa	1048.9
10589 kPa	1049
10624 kPa	1049
10658 kPa	1049.1
10687 kPa	1049
10723 kPa	1049.1
10753 kPa	1049
10789 kPa	1049.2
10820 kPa	1049.1
10857 kPa	1049.1
10894 kPa	1049.1
10924 kPa	1049.2
10961 kPa	1049.3
10993 kPa	1049.2
11031 kPa	1049.3
11063 kPa	1049.3
11101 kPa	1049.3
11133 kPa	1049.4
11171 kPa	1049.3
11210 kPa	1049.3
11243 kPa	1049.3
11283 kPa	1049.4
11317 kPa	1049.5
11359 kPa	1049.5
11394 kPa	1049.4
11436 kPa	1049.6
11472 kPa	1049.6
11511 kPa	1049.6
11541 kPa	1049.5
11577 kPa	1049.6
11607 kPa	1049.6
11641 kPa	1049.7
11666 kPa	1049.6
11688 kPa	1049.6
11714 kPa	1049.7
11736 kPa	1049.8
11763 kPa	1049.7
11789 kPa	1049.7
11811 kPa	1049.8
11838 kPa	1049.7
11865 kPa	1049.9
11888 kPa	1049.8
11910 kPa	1049.8
11936 kPa	1049.9
11964 kPa	1049.8
11987 kPa	1049.8
12015 kPa	1049.9
12038 kPa	1049.9
12068 kPa	1049.8
12093 kPa	1049.9
12117 kPa	1050
12145 kPa	1050
12173 kPa	1050
12197 kPa	1050
12221 kPa	1050
12250 kPa	1050.1
12278 kPa	1050
12302 kPa	1050.2
12331 kPa	1050.1
12356 kPa	1050.1
12385 kPa	1050.2
12416 kPa	1050.1
12441 kPa	1050.1
12466 kPa	1050.1
12496 kPa	1050.2
12521 kPa	1050.1
12551 kPa	1050.3
12576 kPa	1050.2
12607 kPa	1050.3
12637 kPa	1050.3
12663 kPa	1050.3
12694 kPa	1050.2
12720 kPa	1050.2
12751 kPa	1050.3
12782 kPa	1050.3
12808 kPa	1050.4
12840 kPa	1050.4
12867 kPa	1050.4
12899 kPa	1050.5
12926 kPa	1050.4
12959 kPa	1050.5
12986 kPa	1050.6
13019 kPa	1050.6
13051 kPa	1050.6
13078 kPa	1050.5
13111 kPa	1050.6
13173 kPa	1050.6
13201 kPa	1050.6
13235 kPa	1050.5
13264 kPa	1050.6
13297 kPa	1050.5
13332 kPa	1050.7
13360 kPa	1050.6
13395 kPa	1050.8
13424 kPa	1050.7
13459 kPa	1050.9
13493 kPa	1050.9
13522 kPa	1050.8
13558 kPa	1050.8
13589 kPa	1050.9
13625 kPa	1050.9
13656 kPa	1050.9
13693 kPa	1050.9
13723 kPa	1051
13761 kPa	1051
13791 kPa	1050.9
13829 kPa	1050.9
13859 kPa	1051.1
13897 kPa	1051
13934 kPa	1051
13966 kPa	1050.9
14003 kPa	1051.1
14035 kPa	1051.2
14072 kPa	1051.1
14111 kPa	1051.1
14144 kPa	1051.1
14184 kPa	1051.2
14217 kPa	1051.3
14257 kPa	1051.4
14291 kPa	1051.4
14332 kPa	1051.2
14367 kPa	1051.3
14409 kPa	1051.4
14443 kPa	1051.4
14483 kPa	1051.4
14513 kPa	1051.5
14547 kPa	1051.5
14581 kPa	1051.5
14609 kPa	1051.5
14643 kPa	1051.4
14672 kPa	1051.4
14706 kPa	1051.5
14740 kPa	1051.5
14770 kPa	1051.6
14804 kPa	1051.6
14839 kPa	1051.7
14868 kPa	1051.5
14907 kPa	1051.6
14937 kPa	1051.7
14972 kPa	1051.7
15002 kPa	1051.8
15038 kPa	1051.9
15069 kPa	1051.7
15106 kPa	1051.8
15136 kPa	1051.8
15174 kPa	1051.7
15210 kPa	1051.9
15242 kPa	1051.9
15279 kPa	1051.8
15312 kPa	1051.9
15345 kPa	1051.9
15384 kPa	1052.1
15415 kPa	1052
15453 kPa	1052
15492 kPa	1052
15525 kPa	1052.1
15564 kPa	1052.2
15597 kPa	1052.1
15637 kPa	1052.1
15671 kPa	1052.1
15710 kPa	1052.1
15743 kPa	1052.1
15783 kPa	1052.3
15823 kPa	1052.2
15857 kPa	1052.2
15897 kPa	1052.3
